Calls of active or inactive are those of the source.
How the values were obtained:
[1] = target: T1, Short transient receptor potential channel 4 (Mus musculus, UniProt Q9QUQ5); assay: mouse TRPC4 channel activators, dose response, cell-based, HEK293 TRPC4/mu-opioid, Fluo-4 calcium (AID 434937); assay type: functional
T1 sequence (Q9QUQ5 whole entry): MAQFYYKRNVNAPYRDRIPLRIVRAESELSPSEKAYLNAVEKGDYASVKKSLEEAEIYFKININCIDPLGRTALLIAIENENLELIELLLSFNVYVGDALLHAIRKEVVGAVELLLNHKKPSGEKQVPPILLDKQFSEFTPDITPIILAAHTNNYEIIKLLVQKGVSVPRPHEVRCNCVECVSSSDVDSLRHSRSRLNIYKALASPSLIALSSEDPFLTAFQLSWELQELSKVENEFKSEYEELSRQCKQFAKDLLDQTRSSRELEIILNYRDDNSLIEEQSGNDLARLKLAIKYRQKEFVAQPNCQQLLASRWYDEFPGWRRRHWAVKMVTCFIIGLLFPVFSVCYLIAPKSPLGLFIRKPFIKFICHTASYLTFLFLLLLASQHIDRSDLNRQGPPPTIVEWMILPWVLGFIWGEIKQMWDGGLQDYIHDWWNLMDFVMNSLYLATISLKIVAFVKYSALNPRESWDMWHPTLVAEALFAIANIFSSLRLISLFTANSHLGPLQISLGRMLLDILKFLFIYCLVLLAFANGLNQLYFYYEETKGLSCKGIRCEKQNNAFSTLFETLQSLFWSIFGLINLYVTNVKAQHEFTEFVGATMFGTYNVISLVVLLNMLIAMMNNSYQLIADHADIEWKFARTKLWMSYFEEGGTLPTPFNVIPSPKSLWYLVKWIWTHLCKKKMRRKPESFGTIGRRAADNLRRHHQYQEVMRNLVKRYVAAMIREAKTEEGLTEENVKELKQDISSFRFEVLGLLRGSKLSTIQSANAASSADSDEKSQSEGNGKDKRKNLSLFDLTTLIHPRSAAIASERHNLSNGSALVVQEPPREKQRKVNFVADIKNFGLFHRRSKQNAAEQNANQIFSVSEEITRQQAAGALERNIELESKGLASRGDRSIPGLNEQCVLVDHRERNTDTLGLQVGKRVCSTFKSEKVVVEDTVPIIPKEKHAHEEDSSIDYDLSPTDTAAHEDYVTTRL

Leucine aminopeptidase = target: T2, Leucine aminopeptidase (Plasmodium falciparum 3D7, UniProt Q8IL11); assay: P. falciparum M17LAP inhibitors, primary screen, biochemical, fluorogenic H-Leu-NHMec substrate, 1536-well (AID 1619); assay type: functional
T2 sequence (Q8IL11 whole entry): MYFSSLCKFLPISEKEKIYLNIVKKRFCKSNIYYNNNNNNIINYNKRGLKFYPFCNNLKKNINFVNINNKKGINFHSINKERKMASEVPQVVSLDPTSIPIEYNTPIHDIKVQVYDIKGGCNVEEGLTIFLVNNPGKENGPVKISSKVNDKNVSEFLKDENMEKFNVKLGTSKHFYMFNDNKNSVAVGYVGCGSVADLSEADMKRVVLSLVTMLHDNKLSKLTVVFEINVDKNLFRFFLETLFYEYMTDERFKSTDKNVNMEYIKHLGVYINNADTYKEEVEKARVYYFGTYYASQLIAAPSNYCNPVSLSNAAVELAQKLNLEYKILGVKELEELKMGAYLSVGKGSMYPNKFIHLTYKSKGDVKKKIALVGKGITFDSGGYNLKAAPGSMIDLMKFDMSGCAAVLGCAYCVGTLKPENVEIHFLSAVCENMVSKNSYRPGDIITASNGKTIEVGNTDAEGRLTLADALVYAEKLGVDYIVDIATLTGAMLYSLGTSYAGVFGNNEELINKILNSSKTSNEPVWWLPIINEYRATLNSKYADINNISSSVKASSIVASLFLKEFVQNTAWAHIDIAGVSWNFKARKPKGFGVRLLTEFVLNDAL

[2] = Shn3 3'UTR reporter inhibitors, dose response, cell-based, Clone20 osteoblasts, firefly luciferase, cherry-picked (AID 624132); assay type: functional;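 note: firefly luciferase luminescence from reporter carrying the Shn3 3'UTR in osteoblasts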
[3] = HepG2 cell cytotoxicity, dose response, cytotoxicity control for Shn3 inhibitor project, CellTiter-Glo, cherry-picked (AID 624134); assay type: functional, cell-based
[4] = control 3'UTR Renilla luciferase suppression, dose response, counter-screen for Shn3 inhibitor project, cell-based, Clone20-Shn3RL, cherry-picked (AID 624133); assay type: functional
Cytochrome P450 2C19 = Cytochrome P450 2C19 (Homo sapiens, UniProt P33261); assay: Cytochrome panel assay with activity outcomes. Panel member name: p450-cyp2c19 Compounds with AC50 equal or less than 10 uM are considered active; assay type: functional; conditions: read-out: AC50
Sequence of Cytochrome P450 2C19 (P33261 whole entry): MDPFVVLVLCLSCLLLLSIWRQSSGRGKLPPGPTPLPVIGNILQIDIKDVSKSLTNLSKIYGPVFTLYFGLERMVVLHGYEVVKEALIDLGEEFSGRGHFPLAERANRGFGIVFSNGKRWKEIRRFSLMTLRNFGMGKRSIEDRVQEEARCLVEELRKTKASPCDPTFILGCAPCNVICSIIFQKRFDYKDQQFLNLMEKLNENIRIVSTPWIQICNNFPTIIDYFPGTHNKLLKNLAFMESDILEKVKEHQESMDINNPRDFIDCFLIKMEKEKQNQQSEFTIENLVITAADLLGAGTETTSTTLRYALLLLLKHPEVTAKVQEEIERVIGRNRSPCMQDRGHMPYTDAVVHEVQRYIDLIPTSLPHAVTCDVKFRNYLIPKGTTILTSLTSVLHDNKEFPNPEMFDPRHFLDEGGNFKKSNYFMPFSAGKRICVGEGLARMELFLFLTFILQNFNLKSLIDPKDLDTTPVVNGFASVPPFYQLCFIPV

P388/ADR = assay: cells; assay type: functional; conditions: Mus musculus
SN12K1 = assay: cells; assay type: functional; conditions: Homo sapiens
P388 = assay: cells; assay type: functional; conditions: Mus musculus
[5] = P. falciparum 3D7-ScDHODH growth inhibitors, dose response, SYBR Green, dry powder samples (AID 1159570); assay type: functional, cell-based;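 note: parasite growth measured after 72 hours of compound exposure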
[6] = P. falciparum Dd2 growth inhibitors, dose response, SYBR Green, cherry-picked samples (AID 1159567); assay type: functional, cell-based
[7] = P. falciparum Dd2 growth inhibitors, dose response, SYBR Green, dry powder samples (AID 1159566); assay type: functional, cell-based;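 note: potency for growth inhibition with lower SYBR green DNA signal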
[8] = P. falciparum ATP4 D1247Y mutant growth inhibitors, dose response, NITD609-resistant line, SYBR Green, dry powder (AID 1159571); assay type: functional, cell-based;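 note: parasites synchronized at ring stage by sorbitol before testing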

SMILES	GI50 (P388/ADR)	GI50 (SN12K1)	GI50 (P388)	also measured
CCOC(=O)[C@@H]1CCNC[C@@H]1c1ccccc1	–	–	–	EC50 [1]: 3.35 µM (active)
Cc1ccc(C(=O)Nc2ccc(Oc3ccc(C(=O)O)c(C(=O)O)c3)cc2)cc1C	–	–	–	IC50 (Leucine aminopeptidase): 13.2 µM (active)
Cc1csc(SC(C)C(=O)Nc2ccc(Cl)cn2)n1 (stereo unspecified)	–	–	–	IC50 (Leucine aminopeptidase): 6.63 µM (active)
CN(Cc1nccn1C)C(=O)c1cc(COc2ccc3ncccc3c2)on1	–	–	–	AC50 [2]: 6.97 µM (active); AC50 [3]: > 70 µM (inactive); AC50 [4]: 36.8 µM (active)
Cn1c(C(=O)O)c(CC(=O)NCC2COc3ccccc3O2)c2ccccc21 (stereo unspecified)	–	–	–	IC50 (Leucine aminopeptidase): 15.7 µM (active); AC50 (Cytochrome P450 2C19): 25.1 µM (inconclusive)
CC(C)CCCCCCCCCCCCC(=O)NCC(=O)NC1C(O)C(O)C(Nc2[nH]cnc3ncnc2-3)OC1C(O)CO (stereo unspecified)	0.00128 µM (active)	0.00531 µM (active)	0.000211 µM (active)	–
CCC/C=C/C=C/C(=O)OC1/C(=C/C(=O)OC)CC2CC(C(C)O)OC(=O)CC(O)CC3CC(OC(C)=O)C(C)(C)C(O)(CC4C/C(=C/C(=O)OC)CC(/C=C/C(C)(C)C1(O)O2)O4)O3 (stereo unspecified)	–	–	2.16 µM (inactive)	–
C=C1C(=O)OC2C=C(C)CC3C=C(CCC=C(C)CCC12)C(=O)O3 (stereo unspecified)	22.1 µM (inactive)	58.3 µM (inactive)	12.4 µM (inactive)	–
CC(C)(C)OC(=O)NC1CCC(C(C)(C)C)CC1 (stereo unspecified)	30 µM (inactive)	45.4 µM (inactive)	15.9 µM (inactive)	–
CC(=O)OC1C(O)C(C)OC(OC(=O)C2CCC3C(C2)OC2(CC(OC(=O)/C=C/c4ccccc4)C(C)CO2)C32CO2)C1OC1OC(C)C(O)C(O)C1O (stereo unspecified)	20.9 µM (inactive)	0.0348 µM (active)	0.306 µM (active)	–
C#CC[N+](CCO)(CCO)CCCCCCCCCCCCCCCCCC	8.55 µM (inactive)	13 µM (inactive)	1.08 µM (active)	–
CC(C)(C)[S@@+]([O-])N1Cc2cc(C(=O)NCCc3ccncc3)nc(-c3cccc(-c4ccccc4)c3)c2[C@H]1CCO	–	–	–	AC50 [5]: 1.08 µM (active); AC50 [6]: 0.414 µM (active); AC50 [7]: 0.366 µM (active); AC50 [8]: 0.537 µM (active)
CC1OC(CO)(n2cnc3c(N)ncnc32)C(O)C1O (stereo unspecified)	> 100 µM (inactive)	> 100 µM (inactive)	> 100 µM (inactive)	–

Reference: ChEMBL document CHEMBL1201862, “PubChem BioAssay data set” (2004)
